One experiment addresses T1, ATR/ATRIP (Homo sapiens, UniProt Q13535).
T1 construct: human ATR, full length, GenBank ID: NM_001184.3; p53: Sf21 insect cells
As to the kind of experiment: ATR/ATRIP kinase assay (TR-FRET, p53 phosphorylation). The format is biochemical. On the procedure: ATR/ATRIP Kinase Assay—Measurement of ATR/ATRIP Inhibition
The IC50 value was determined by an ATR/ATRIP enzymatic assay. The assay comprises two steps: the enzymatic reaction and the detection step. First, a mixture of ATR/ATRIP protein (Ataxia Telangiectasia and Rad3-related protein/ATR interacting protein), the compound in question at different concentrations, p53 as substrate protein and adenosine triphosphate (ATP) are incubated in assay buffer. ATR phosphorylates p53 at Ser15 and other residues. The amount of phosphorylated p53 is then detected using specific antibodies and the TR-FRET assay technology.
In detail: The ATR/ATRIP enzymatic assay is performed as a TR-FRET-(HTRF™, Cisbio Bioassays) based 384-well assay. In a first step, purified human recombinant ATR/ATRIP (human ATR, full length, GenBank ID: NM_001184.3, and human ATRIP, full length, GenBank ID AF451323.1, co-expressed in a mammalian cell line) is incubated in assay buffer for 15 minutes at 22° C. with test compound at different concentrations or without test compound (as a negative control). The assay buffer contains 25 mM HEPES pH 8.0, 10 mM Mg(CH3COO)2, 1 mM MnCl2, 0.1% BSA, 0.01% Brij® 35, and 5 mM dithiothreitol (DTT). […] Then, in a second step, purified human recombinant cmyc-tagged p53 (human p53, full length, GenBank ID: BC003596, expressed in Sf21 insect cells) and ATP are added and the reaction mixture is incubated for 25-35 minutes, typically 25 minutes, at 22° C. The pharmacologically relevant assay volume is 5 μl. The final concentrations in the assay during incubation of the reaction mixture are 0.3-0.5 nM, typically 0.3 nM, ATR/ATRIP, 50 nM p53, and 0.5 μM ATP. The enzymatic reaction is stopped by the addition of EDTA. […] Following signal development for 2 h the plates are analyzed in an EnVision (PerkinElmer) microplate reader using the TRF mode with laser excitation. […] Data are processed employing the Genedata Screener software. In particular, IC50 values are determined in the usual manner by fitting a dose-response curve to the data points using nonlinear regression analysis.
For orientation: Time-resolved FRET reads energy transfer from a long-lived donor to a nearby acceptor.

For experiment [1], the system named is phosphorylation of Chk1 (Ser 345) in HT29 colon adenocarcinoma cells. The experiment in a line: pCHK1 cellular assay. The format is cell-based. The following applies: Homo sapiens, HT-29, Table 1, class symbols, hydroxyurea. The source says: Chk1 kinase acts downstream of ATR and has a key role in DNA damage checkpoint control. Activation of Chk1 involves phosphorylation of Ser317 and Ser345 (regarded as the preferential target for phosphorylation/activation by ATR) and occurs in response to blocked DNA replication and certain forms of genotoxic stress. Phosphorylation at Ser 345 serves to localize Chk1 to the nucleus following checkpoint activation.
This assay measures a decrease in phosphorylation of Chk1 (Ser 345) in HT29 colon adenocarcinoma cells following treatment with compound and hydroxyurea (which promotes fork stalling because of dNTP depletion) and using an immunocytochemical procedure and high content imaging.
For the assay HT29 cells are plated in culture medium (DMEM high Glucose (no phenol red), 2 mM Glutamax, 1 mM Pyruvate, 10% FCS into Greiner 384 well plates, black, μclear #781090 (2500 cells/well/30 μl) and incubated for at least 20 hours at 37° C., 10% CO2 and 90% rH. Diluted test compounds (1 nM-30 μM final) and hydroxyurea (3 mM final) are added simultaneously and cells are incubated for 4 h at 37° C. After fixation/prmeabilisation with 100% MeOH (−20° C. cold) and permeabilisation with 0.2% Triton X-100 a complete immunocytochemical procedure is performed using a specific anti-pChk1 antibody (Cell Signaling, #2348BF) and fluorescently labelled secondary antibody (Alexa Fluor® 488 goat anti-rabbit F(ab′)2 fragment, Invitrogen A11070) and parallel nuclear staining for cell counting.
The nuclear localised pChk1 signal is detected on an ImageXpress Ultra confocal high content reader and reported as % positive cells (nuclei).

Where [2] appears, read: Table 1, class symbols, read-out: ATR-ATRIP IC50.

Read-outs that look alike come from different tables or passages of the source. Bounds are passed on as bounds.

T1 sequence (Q13535 whole entry): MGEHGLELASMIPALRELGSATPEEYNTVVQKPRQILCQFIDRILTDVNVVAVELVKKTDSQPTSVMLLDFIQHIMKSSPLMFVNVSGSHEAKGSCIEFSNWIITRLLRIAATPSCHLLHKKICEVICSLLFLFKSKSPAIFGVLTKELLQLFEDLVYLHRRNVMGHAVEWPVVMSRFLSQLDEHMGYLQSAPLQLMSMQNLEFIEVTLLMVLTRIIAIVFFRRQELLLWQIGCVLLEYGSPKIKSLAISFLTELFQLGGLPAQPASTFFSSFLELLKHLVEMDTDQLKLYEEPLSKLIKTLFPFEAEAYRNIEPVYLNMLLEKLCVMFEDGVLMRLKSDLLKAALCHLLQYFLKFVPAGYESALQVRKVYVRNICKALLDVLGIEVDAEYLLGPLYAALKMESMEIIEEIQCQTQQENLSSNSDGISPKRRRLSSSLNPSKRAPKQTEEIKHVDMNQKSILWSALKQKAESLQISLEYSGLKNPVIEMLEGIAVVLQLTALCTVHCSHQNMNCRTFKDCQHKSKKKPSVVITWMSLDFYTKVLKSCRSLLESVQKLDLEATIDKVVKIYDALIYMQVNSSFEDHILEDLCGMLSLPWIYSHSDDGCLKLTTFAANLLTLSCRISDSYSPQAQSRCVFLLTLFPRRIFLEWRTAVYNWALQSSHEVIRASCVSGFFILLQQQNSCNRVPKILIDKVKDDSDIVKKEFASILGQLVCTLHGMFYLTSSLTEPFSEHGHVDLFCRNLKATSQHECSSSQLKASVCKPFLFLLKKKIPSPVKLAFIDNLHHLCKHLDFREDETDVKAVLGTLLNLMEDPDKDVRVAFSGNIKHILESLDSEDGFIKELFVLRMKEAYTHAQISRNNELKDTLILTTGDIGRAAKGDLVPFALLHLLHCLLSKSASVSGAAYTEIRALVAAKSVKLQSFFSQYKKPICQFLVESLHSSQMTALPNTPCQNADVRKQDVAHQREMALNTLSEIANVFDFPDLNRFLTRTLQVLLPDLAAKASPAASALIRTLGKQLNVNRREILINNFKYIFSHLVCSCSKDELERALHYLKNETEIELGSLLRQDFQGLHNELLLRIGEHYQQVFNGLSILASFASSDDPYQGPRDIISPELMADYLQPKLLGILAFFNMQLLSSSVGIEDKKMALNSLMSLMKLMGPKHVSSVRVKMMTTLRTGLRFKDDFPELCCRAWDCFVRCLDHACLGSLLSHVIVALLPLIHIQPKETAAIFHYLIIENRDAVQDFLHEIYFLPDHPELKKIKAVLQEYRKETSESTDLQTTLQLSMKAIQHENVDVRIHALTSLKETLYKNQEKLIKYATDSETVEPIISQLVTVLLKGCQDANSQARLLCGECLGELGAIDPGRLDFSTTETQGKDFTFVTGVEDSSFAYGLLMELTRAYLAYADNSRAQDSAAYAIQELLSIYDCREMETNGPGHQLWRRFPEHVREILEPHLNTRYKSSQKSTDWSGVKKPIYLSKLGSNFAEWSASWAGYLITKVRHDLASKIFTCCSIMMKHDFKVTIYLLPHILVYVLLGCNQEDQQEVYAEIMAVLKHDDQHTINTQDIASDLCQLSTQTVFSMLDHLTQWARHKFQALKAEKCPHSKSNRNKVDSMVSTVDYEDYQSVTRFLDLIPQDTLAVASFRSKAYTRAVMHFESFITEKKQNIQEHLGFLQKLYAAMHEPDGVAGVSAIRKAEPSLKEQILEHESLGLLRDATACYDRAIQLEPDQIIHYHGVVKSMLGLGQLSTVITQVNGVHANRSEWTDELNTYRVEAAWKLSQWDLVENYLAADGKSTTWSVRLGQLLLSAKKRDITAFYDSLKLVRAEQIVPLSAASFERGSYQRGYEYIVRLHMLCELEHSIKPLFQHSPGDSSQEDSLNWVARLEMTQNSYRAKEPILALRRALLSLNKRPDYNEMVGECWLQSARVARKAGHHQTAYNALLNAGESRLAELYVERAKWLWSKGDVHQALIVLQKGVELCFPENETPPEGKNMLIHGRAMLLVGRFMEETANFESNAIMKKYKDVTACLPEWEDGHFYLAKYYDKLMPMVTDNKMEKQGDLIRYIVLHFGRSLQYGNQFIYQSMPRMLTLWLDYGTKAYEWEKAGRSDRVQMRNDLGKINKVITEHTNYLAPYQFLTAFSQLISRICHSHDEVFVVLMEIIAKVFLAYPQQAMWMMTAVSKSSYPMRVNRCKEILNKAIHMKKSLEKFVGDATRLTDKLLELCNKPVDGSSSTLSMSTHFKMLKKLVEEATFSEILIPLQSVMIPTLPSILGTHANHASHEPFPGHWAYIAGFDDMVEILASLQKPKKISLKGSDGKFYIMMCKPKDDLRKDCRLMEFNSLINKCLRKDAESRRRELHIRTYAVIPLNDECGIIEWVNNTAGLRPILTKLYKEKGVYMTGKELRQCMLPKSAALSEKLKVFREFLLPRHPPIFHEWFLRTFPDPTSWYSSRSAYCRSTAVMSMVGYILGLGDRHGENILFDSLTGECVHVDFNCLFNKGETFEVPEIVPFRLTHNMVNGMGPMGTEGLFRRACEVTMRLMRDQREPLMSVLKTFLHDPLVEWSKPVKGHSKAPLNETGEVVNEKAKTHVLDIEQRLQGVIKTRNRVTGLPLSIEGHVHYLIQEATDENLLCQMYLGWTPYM
T1 sequence (Q8WXE1 whole entry partner): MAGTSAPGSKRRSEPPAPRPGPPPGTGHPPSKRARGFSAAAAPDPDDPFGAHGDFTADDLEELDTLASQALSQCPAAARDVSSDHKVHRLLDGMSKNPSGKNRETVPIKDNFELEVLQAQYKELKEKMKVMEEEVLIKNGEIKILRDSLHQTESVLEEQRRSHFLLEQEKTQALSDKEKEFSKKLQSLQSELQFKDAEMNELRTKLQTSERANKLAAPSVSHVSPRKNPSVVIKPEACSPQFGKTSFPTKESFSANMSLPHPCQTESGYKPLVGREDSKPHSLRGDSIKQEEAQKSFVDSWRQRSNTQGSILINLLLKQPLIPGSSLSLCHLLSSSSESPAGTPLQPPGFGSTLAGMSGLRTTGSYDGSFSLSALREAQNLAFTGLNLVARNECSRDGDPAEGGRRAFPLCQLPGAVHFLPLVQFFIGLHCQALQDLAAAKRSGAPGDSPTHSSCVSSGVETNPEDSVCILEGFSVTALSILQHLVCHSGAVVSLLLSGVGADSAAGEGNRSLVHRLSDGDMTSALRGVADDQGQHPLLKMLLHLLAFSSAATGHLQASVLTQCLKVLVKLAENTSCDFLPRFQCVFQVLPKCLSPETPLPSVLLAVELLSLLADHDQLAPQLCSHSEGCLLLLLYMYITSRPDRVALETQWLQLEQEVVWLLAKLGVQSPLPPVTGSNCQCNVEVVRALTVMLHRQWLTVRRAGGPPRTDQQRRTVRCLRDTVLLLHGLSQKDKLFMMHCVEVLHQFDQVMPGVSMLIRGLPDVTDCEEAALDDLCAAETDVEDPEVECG

For orientation: IC50 means the midpoint of a concentration-inhibition curve. On to `C[C@@H]1COC[C@H]2COc3c(nc(-c4ccc5nc(N)ccc5c4)nc3C(C)(C)S(C)(=O)=O)N21` [A72, 6-[(5R,8aS)-1-(1-methanesulfonyl-1-methyl-ethyl)-5-methyl-5,6,8a,9-tetrahydro-8H-7,10-dioxa-2,4,4b-triaza-phenanthren-3-yl]-quinolin-2-ylamine], for which the IC50 is below 1 nM on ATR/ATRIP (setting [2]) and 100 to 1000 nM in experiment [1].

Turning to `C[C@@H]1COC[C@H]2COc3c(nc(-c4cc5cc(F)ncc5[nH]4)nc3C(C)(C)S(C)(=O)=O)N21` [A67, (5R,8aS)-3-(5-fluoro-1H-pyrrolo[2,3-c]pyridin-2-yl)-1-(1-methanesulfonyl-1-methyl-ethyl)-5-methyl-5,6,8a,9-tetrahydro-8H-7,10-dioxa-2,4,4b-triaza-phenanthrene], the IC50 was in the range of 10 to 100 nM on ATR/ATRIP (setting [2]) and 1000 to 30000 nM in experiment [1].

Take `[2H]C([2H])([2H])Nc1cnc2[nH]ccc2c1-c1nc2c(c(C(C)(C)S(C)(=O)=O)n1)OC[C@@H]1COC[C@@H](C)N21` [A42, 4-[(10S,14R)-6-(2-methanesulfonylpropan-2-yl)-14-methyl-8,12-dioxa-1,3,5-triazatricyclo[8.4.0.0^2,7]tetradeca-2,4,6-trien-4-yl]-N-(^2H3)methyl-1H-pyrrolo[2,3-b]pyridin-5-amine]: the IC50 lay in the range of 1 to 10 nM on ATR/ATRIP (setting [2]) and 10 to 100 nM in experiment [1].

Regarding `CNc1ncc2[nH]ccc2c1-c1nc2c(c(C(C)(C)S(C)(=O)=O)n1)OC[C@@H]1COC[C@@H](C)N21` [A27, {4-[(5R,8aS)-1-(1-Methanesulfonyl-1-methyl-ethyl)-5-methyl-5,6,8a,9-tetrahydro-8H-7,10-dioxa-2,4,4b-triaza-phenanthren-3-yl]-1H-pyrrolo[2,3-c]pyridin-5-yl}-methyl-amine], the results for the IC50 (on ATR/ATRIP (setting [2]); in experiment [1]) were below 1 nM and below 10 nM, respectively.

Regarding `C[C@@H]1COC[C@H]2COc3c(nc(-c4cccc(C5(CO)CN5)c4)nc3C(C)(C)S(C)(=O)=O)N21` (stereo partly drawn) [A63, (2-{3-[(5R,8aS)-1-(1-methanesulfonyl-1-methyl-ethyl)-5-methyl-5,6,8a,9-tetrahydro-8H-7,10-dioxa-2,4,4b-triaza-phenanthren-3-yl]-phenyl}-aziridin-2-yl)-methanol], the IC50 on ATR/ATRIP fell in the range of 500 to 30000 nM; in experiment [1] it was 1000 to 30000 nM.

As for `C[C@@H]1COC[C@H]2COc3c(nc(-c4c(N)cnc5[nH]ccc45)nc3C3(S(C)(=O)=O)CC3)N21` [A37, 4-[(10S,14R)-6-(1-methanesulfonylcyclopropyl)-14-methyl-8,12-dioxa-1,3,5-triazatricyclo[8.4.0.0^2,7]tetradeca-2,4,6-trien-4-yl]-1H-pyrrolo[2,3-b]pyridin-5-amine], the figures for the IC50 (at ATR/ATRIP (setting [2]); in experiment [1]) were below 1 nM and 100 to 1000 nM, respectively.

In the case of `C[C@@H]1COC[C@H]2COc3c(nc(Nc4ccn[nH]4)nc3C(C)(C)S(C)(=O)=O)N21` [A73, [(5R,8aS)-1-(1-methanesulfonyl-1-methyl-ethyl)-5-methyl-5,6,8a,9-tetrahydro-8H-7,10-dioxa-2,4,4b-triaza-phenanthren-3-yl]-(2H-pyrazol-3-yl)-amine], the IC50 is below 1 nM at ATR/ATRIP (setting [2]) and 10 to 100 nM in experiment [1].

For `C[C@@H]1COC[C@H]2COc3c(nc(Nc4cn[nH]n4)nc3C(C)(C)S(C)(=O)=O)N21` [A69, [(5R,8aS)-1-(1-methanesulfonyl-1-methyl-ethyl)-5-methyl-5,6,8a,9-tetrahydro-8H-7,10-dioxa-2,4,4b-triaza-phenanthren-3-yl]-(2H[1,2,3]triazol-4-yl)-amine], the IC50 fell in the range of 10 to 100 nM at ATR/ATRIP (setting [2]) and 100 to 1000 nM in experiment [1].

Take `C[C@@H]1COC[C@H]2COc3c(nc(-c4ccc(C5(CO)CN5)cc4)nc3C(C)(C)S(C)(=O)=O)N21` (stereo partly drawn) [A61, (2-{4-[(5R,8aS)-1-(1-methanesulfonyl-1-methyl-ethyl)-5-methyl-5,6,8a,9-tetrahydro-8H-7,10-dioxa-2,4,4b-triaza-phenanthren-3-yl]-phenyl}-aziridin-2-yl)-methanol]: the IC50 against ATR/ATRIP is 500 to 30000 nM; in experiment [1], 1000 to 30000 nM.

(Values after patent publication US10570149B2, “Tricyclic heterocylic derivatives” (MERCK PATENT GMBH, priority 2016, dated 2020).)
